The results in this text go back to patent US12723063B2, “GIPR-agonist compounds” (Eli Lilly and Company, priority 2019, dated 2026).

*1 amine or outer side, *2 acyl side, *3 side chain or, on linkers, in order; H or OH if unused. Where a SMILES comes first, the peptide text is derived from it. Side-chain parts run from the residue outwards. [ ]: non-standard residue; d: D form. The star is where a group is joined. C20 diacid = O=C(O)CCCCCCCCCCCCCCCCCCC(=O)*; C18 diacid = O=C(O)CCCCCCCCCCCCCCCCC(=O)*; αMePhe(2-F) = C[C@](N)(Cc1ccccc1F)C(=O)O; γGlu = O=C(O)[C@H](CCC(=O)[*:2])N[*:1]; 4Pal = N[C@@H](Cc1ccncc1)C(=O)O; αMeL = CC(C)C[C@](C)(N)C(=O)O; AEEA = NCCOCCOCC(=O)O; Aib = CC(C)(N)C(=O)O

In assay [1] the target is T1, human GcgR (Homo sapiens, UniProt P47871).
T1 construct: expressed in transfected cells; crude membranes
T1 sequence (P47871 26-477): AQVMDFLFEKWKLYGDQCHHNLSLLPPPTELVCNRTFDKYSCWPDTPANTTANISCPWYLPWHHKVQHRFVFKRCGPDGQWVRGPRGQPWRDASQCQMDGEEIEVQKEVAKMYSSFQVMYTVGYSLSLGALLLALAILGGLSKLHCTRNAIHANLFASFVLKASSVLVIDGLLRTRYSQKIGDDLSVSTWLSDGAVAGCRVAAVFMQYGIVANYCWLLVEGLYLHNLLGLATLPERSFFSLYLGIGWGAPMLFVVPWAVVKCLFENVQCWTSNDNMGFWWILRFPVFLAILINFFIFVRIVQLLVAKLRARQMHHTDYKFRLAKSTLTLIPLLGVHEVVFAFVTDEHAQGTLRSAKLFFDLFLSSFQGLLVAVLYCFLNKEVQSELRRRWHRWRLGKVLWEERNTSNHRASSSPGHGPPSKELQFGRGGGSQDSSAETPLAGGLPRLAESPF
Nature of the assay: [125I]-Glucagon binding, SPA with WGA beads, 0.1% bacitracin. As to conditions: geometric mean, read-out: hGcgR Ki. The method in brief: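 SPA competition binding with WGA beads on crude membranes from HEK293 cells stably expressing hGcgR. Buffer: 25 mM HEPES pH 7.4, 2.5 mM CaCl2, 1 mM MgCl2, 0.1% bacitracin, 0.003% Tween-20; 10-point 3-fold dilutions, NSB with 1 μM Gcg.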

Assay [2] has as its target T2, human GIPR (Homo sapiens, UniProt P48546).
T2 construct: expressed in transfected cells; crude membranes
T2 sequence (P48546 22-466): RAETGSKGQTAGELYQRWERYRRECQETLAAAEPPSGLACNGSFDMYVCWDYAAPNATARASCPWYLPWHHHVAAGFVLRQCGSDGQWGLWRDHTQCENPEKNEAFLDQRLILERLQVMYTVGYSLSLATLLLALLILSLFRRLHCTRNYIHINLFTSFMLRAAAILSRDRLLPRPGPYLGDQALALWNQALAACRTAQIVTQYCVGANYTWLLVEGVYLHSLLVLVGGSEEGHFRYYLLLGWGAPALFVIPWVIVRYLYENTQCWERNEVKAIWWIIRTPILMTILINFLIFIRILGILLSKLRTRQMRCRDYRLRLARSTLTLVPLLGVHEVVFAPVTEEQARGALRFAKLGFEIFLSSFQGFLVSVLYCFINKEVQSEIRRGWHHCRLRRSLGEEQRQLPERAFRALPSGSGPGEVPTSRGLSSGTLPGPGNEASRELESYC
Nature of the assay: [125I]-GIP binding, SPA with WGA beads, 0.1% bacitracin. To be noted: geometric mean, read-out: hGIPR Ki. A digest of the protocol: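 Ki values are geometric means (SEM, n independent days), derived from four-parameter nonlinear regression of IC50. Membranes came from hGIPR-expressing CHO cells.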

Assay [3] has as its target T3, human GLP-1R (Homo sapiens, UniProt P43220).
T3 construct: expressed in transfected cells; crude membranes
Nature of the assay: [125I]-GLP-1 binding, SPA with WGA beads, 0.1% bacitracin. As to conditions: geometric mean, read-out: hGLP1R Ki. The method in brief:
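Binding buffer was 25 mM HEPES pH 7.4 with 2.5 mM CaCl2, 1 mM MgCl2, 0.1% (w/v) bacitracin, 0.003% Tween-20 and EDTA-free protease inhibitors. Four-parameter regression gave IC50, converted to Ki (geometric mean, SEM, n independent days).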

T3 sequence (P43220 24-463): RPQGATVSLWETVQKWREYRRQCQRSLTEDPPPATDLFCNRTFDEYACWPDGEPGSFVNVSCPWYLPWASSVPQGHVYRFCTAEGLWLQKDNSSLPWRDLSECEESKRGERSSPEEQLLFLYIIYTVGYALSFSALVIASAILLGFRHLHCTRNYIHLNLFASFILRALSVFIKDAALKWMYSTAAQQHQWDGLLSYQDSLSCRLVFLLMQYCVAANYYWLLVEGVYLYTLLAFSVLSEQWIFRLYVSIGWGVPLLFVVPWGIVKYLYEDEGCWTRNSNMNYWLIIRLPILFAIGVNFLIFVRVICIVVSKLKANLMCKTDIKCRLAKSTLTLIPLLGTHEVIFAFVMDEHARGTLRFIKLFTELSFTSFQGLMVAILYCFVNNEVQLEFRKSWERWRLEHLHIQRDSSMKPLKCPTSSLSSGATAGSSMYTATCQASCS

For the compound `CC[C@H](C)[C@H](NC(=O)[C@H](CO)NC(=O)[C@H](Cc1ccc(O)cc1)NC(=O)[C@H](CC(=O)O)NC(=O)[C@H](CO)NC(=O)[C@@H](NC(=O)[C@](C)(Cc1ccccc1F)NC(=O)[C@@H](NC(=O)CNC(=O)[C@H](CCC(=O)O)NC(=O)C(C)(C)NC(=O)[C@@H](N)Cc1ccc(O)cc1)[C@@H](C)O)[C@@H](C)CC)C(=O)N[C@@H](C)C(=O)N[C@@H](CC(C)C)C(=O)N[C@@H](CC(=O)O)C(=O)N[C@@H](CCCCN)C(=O)N[C@H](C(=O)N[C@@H](Cc1c[nH]cn1)C(=O)N[C@@H](CCC(N)=O)C(=O)NC(C)(C)C(=O)N[C@@H](CC(=O)O)C(=O)N[C@@H](Cc1ccccc1)C(=O)N[C@H](C(=O)N[C@@H](CCC(=O)O)C(=O)N[C@@H](Cc1ccncc1)C(=O)N[C@@H](CCCCNC(=O)COCCOCCNC(=O)COCCOCCNC(=O)CC[C@H](NC(=O)CCCCCCCCCCCCCCCCCCC(=O)O)C(=O)O)C(=O)N[C@@H](CC(C)C)C(=O)N[C@@H](CCC(=O)O)C(=O)N[C@@H](C)C(=O)NCC(=O)N1CCC[C@H]1C(=O)N[C@@H](CO)C(=O)N[C@@H](CO)C(=O)NCC(=O)N[C@@H](C)C(=O)N1CCC[C@H]1C(=O)N1CCC[C@H]1C(=O)N1CCC[C@H]1C(=O)N[C@@H](CO)C(N)=O)C(C)C)[C@@H](C)CC` [Example 113] (H-Y[Aib]EGT[αMePhe(2-F)]ISDYSIALDKIHQ[Aib]DFVE[4Pal]K([AEEA-AEEA-γGlu-C20 diacid])LEAGPSSGAPPPS-NH2), the Ki is 821 nM in assay [1], 0.108 nM in assay [2] and over 921 nM in assay [3].

Take `CC[C@H](C)[C@H](NC(=O)[C@H](CO)NC(=O)[C@H](Cc1ccc(O)cc1)NC(=O)[C@H](CC(=O)O)NC(=O)[C@H](CO)NC(=O)[C@@H](NC(=O)[C@H](Cc1ccccc1)NC(=O)[C@@H](NC(=O)CNC(=O)[C@H](CCC(=O)O)NC(=O)[C@@H](C)NC(=O)[C@@H](N)Cc1ccc(O)cc1)[C@@H](C)O)[C@@H](C)CC)C(=O)N[C@@H](CC(C)C)C(=O)N[C@@H](CC(C)C)C(=O)N[C@@H](CC(=O)O)C(=O)N[C@@H](CCCCN)C(=O)N[C@@H](CCCCNC(=O)COCCOCCNC(=O)COCCOCCNC(=O)CC[C@H](NC(=O)CCCCCCCCCCCCCCCCC(=O)O)C(=O)O)C(=O)N[C@@H](C)C(=O)N[C@@H](CCC(N)=O)C(=O)NC(C)(C)C(=O)N[C@@H](CCC(=O)O)C(=O)N[C@@H](Cc1ccccc1)C(=O)N[C@H](C(=O)N[C@@H](CC(N)=O)C(=O)N[C@@H](Cc1c[nH]c2ccccc12)C(=O)N[C@@H](CC(C)C)C(=O)N[C@@H](CC(C)C)C(=O)N[C@@H](C)C(=O)N[C@@H](CCC(N)=O)C(=O)NCC(=O)N1CCC[C@H]1C(=O)N[C@@H](CO)C(=O)N[C@@H](CO)C(=O)NCC(=O)N[C@@H](C)C(=O)N1CCC[C@H]1C(=O)N1CCC[C@H]1C(=O)N1CCC[C@H]1C(=O)N[C@@H](CO)C(N)=O)C(C)C` [Example 20] (H-Y[dA]EGTFISDYSILLDKK([AEEA-AEEA-γGlu-C18 diacid])AQ[Aib]EFVNWLLAQGPSSGAPPPS-NH2): the Ki in assay [1] came to 216 nM; in assay [2], 0.0477 nM; in assay [3], 79.8 nM.

With `CC[C@H](C)[C@H](NC(=O)[C@H](CC(C)C)NC(=O)[C@@H](NC(=O)CNC(=O)[C@H](CCC(=O)O)NC(=O)C(C)(C)NC(=O)[C@@H](N)Cc1ccc(O)cc1)[C@@H](C)O)C(=O)N[C@@H](CO)C(=O)N[C@@H](CC(=O)O)C(=O)N[C@@H](Cc1ccc(O)cc1)C(=O)N[C@@H](CO)C(=O)N[C@H](C(=O)N[C@@](C)(CC(C)C)C(=O)N[C@@H](CC(C)C)C(=O)N[C@@H](CC(=O)O)C(=O)N[C@@H](CCCCN)C(=O)N[C@@H](CCCCNC(=O)COCCOCCNC(=O)COCCOCCNC(=O)CC[C@H](NC(=O)CCCCCCCCCCCCCCCCCCC(=O)O)C(=O)O)C(=O)N[C@@H](Cc1c[nH]cn1)C(=O)N[C@@H](CCC(N)=O)C(=O)NC(C)(C)C(=O)N[C@@H](CCC(=O)O)C(=O)N[C@@H](Cc1ccccc1)C(=O)N[C@H](C(=O)N[C@@H](CCC(=O)O)C(=O)N[C@@H](Cc1ccc(O)cc1)C(=O)N[C@@H](CC(C)C)C(=O)N[C@@H](CC(C)C)C(=O)N[C@@H](CCC(=O)O)C(=O)NCC(=O)NCC(=O)N1CCC[C@H]1C(=O)N[C@@H](CO)C(=O)N[C@@H](CO)C(=O)NCC(=O)N[C@@H](C)C(=O)N1CCC[C@H]1C(=O)N1CCC[C@H]1C(=O)N1CCC[C@H]1C(=O)N[C@@H](CO)C(N)=O)C(C)C)[C@@H](C)CC` [Example 73] (H-Y[Aib]EGTLISDYSI[αMeL]LDKK([AEEA-AEEA-γGlu-C20 diacid])HQ[Aib]EFVEYLLEGGPSSGAPPPS-NH2), the inhibitory constant (Ki) in assay [1] turned out to be 292 nM; in assay [2], 0.036 nM; in assay [3], 117 nM.

`CC[C@H](C)[C@H](NC(=O)[C@H](CCCCN)NC(=O)[C@H](CC(=O)O)NC(=O)[C@H](CC(C)C)NC(=O)[C@H](CC(C)C)NC(=O)[C@@H](NC(=O)[C@H](CO)NC(=O)[C@H](Cc1ccc(O)cc1)NC(=O)[C@H](CC(=O)O)NC(=O)[C@H](CO)NC(=O)[C@@H](NC(=O)[C@H](Cc1ccccc1)NC(=O)[C@@H](NC(=O)CNC(=O)[C@H](CCC(=O)O)NC(=O)[C@@H](C)NC(=O)[C@@H](N)Cc1ccc(O)cc1)[C@@H](C)O)[C@@H](C)CC)[C@@H](C)CC)C(=O)N[C@@H](C)C(=O)N[C@@H](CCC(N)=O)C(=O)NC(C)(C)C(=O)N[C@@H](CC(=O)O)C(=O)N[C@@H](Cc1ccccc1)C(=O)N[C@H](C(=O)N[C@@H](CC(N)=O)C(=O)N[C@@H](Cc1c[nH]c2ccccc12)C(=O)N[C@@H](CCCCNC(=O)COCCOCCNC(=O)COCCOCCNC(=O)CC[C@H](NC(=O)CCCCCCCCCCCCCCCCC(=O)O)C(=O)O)C(=O)N[C@@H](CC(C)C)C(=O)N[C@@H](C)C(=O)N[C@@H](CCC(N)=O)C(=O)NCC(=O)N1CCC[C@H]1C(=O)N[C@@H](CO)C(=O)N[C@@H](CO)C(=O)NCC(=O)N[C@@H](C)C(=O)N1CCC[C@H]1C(=O)N1CCC[C@H]1C(=O)N1CCC[C@H]1C(=O)N[C@@H](CO)C(N)=O)C(C)C` [Example 93] (H-Y[dA]EGTFISDYSILLDKIAQ[Aib]DFVNWK([AEEA-AEEA-γGlu-C18 diacid])LAQGPSSGAPPPS-NH2): the Ki was over 959 nM in assay [1], 0.043 nM in assay [2] and over 909 nM in assay [3].

As to `CC[C@H](C)[C@H](NC(=O)[C@H](CC(C)C)NC(=O)[C@@H](NC(=O)CNC(=O)[C@H](CCC(=O)O)NC(=O)C(C)(C)NC(=O)[C@@H](N)Cc1ccc(O)cc1)[C@@H](C)O)C(=O)N[C@@H](CO)C(=O)N[C@@H](CC(=O)O)C(=O)N[C@@H](Cc1ccc(O)cc1)C(=O)N[C@@H](CO)C(=O)N[C@H](C(=O)N[C@@](C)(CC(C)C)C(=O)N[C@@H](CC(C)C)C(=O)N[C@@H](CC(=O)O)C(=O)N[C@@H](CCCCN)C(=O)N[C@@H](CCCCNC(=O)COCCOCCNC(=O)COCCOCCNC(=O)CC[C@H](NC(=O)CCCCCCCCCCCCCCCCCCC(=O)O)C(=O)O)C(=O)N[C@@H](Cc1c[nH]cn1)C(=O)N[C@@H](CCC(N)=O)C(=O)NC(C)(C)C(=O)N[C@@H](CC(=O)O)C(=O)N[C@@H](Cc1ccccc1)C(=O)N[C@H](C(=O)N[C@@H](CCC(=O)O)C(=O)N[C@@H](Cc1ccncc1)C(=O)N[C@@H](CC(C)C)C(=O)N[C@@H](CC(C)C)C(=O)N[C@@H](CCC(=O)O)C(=O)N[C@@H](C)C(=O)NCC(=O)N1CCC[C@H]1C(=O)N[C@@H](CO)C(=O)N[C@@H](CO)C(=O)NCC(=O)N[C@@H](C)C(=O)N1CCC[C@H]1C(=O)N1CCC[C@H]1C(=O)N1CCC[C@H]1C(=O)N[C@@H](CO)C(N)=O)C(C)C)[C@@H](C)CC` [Example 89] (H-Y[Aib]EGTLISDYSI[αMeL]LDKK([AEEA-AEEA-γGlu-C20 diacid])HQ[Aib]DFVE[4Pal]LLEAGPSSGAPPPS-NH2), the Ki was determined as 611 nM in assay [1], 0.072 nM in assay [2] and 294 nM in assay [3].

As to `CC[C@H](C)[C@H](NC(=O)[C@H](Cc1ccccc1)NC(=O)[C@@H](NC(=O)CNC(=O)[C@H](CCC(=O)O)NC(=O)C(C)(C)NC(=O)[C@@H](N)Cc1ccc(O)cc1)[C@@H](C)O)C(=O)N[C@@H](CO)C(=O)N[C@@H](CC(=O)O)C(=O)N[C@@H](Cc1ccc(O)cc1)C(=O)N[C@@H](CO)C(=O)N[C@H](C(=O)NC(C)(C)C(=O)N[C@@H](CC(C)C)C(=O)N[C@@H](CC(=O)O)C(=O)N[C@@H](CCCCN)C(=O)N[C@@H](CCCCNC(=O)COCCOCCNC(=O)COCCOCCNC(=O)CC[C@H](NC(=O)CCCCCCCCCCCCCCCCC(=O)O)C(=O)O)C(=O)N[C@@H](Cc1c[nH]cn1)C(=O)N[C@@H](CCC(N)=O)C(=O)NC(C)(C)C(=O)N[C@@H](CC(=O)O)C(=O)N[C@@H](Cc1ccccc1)C(=O)N[C@H](C(=O)N[C@@H](CCC(=O)O)C(=O)N[C@@H](Cc1ccncc1)C(=O)N[C@@H](CC(C)C)C(=O)N[C@@H](CC(C)C)C(=O)N[C@@H](C)C(=O)NCC(=O)NCC(=O)N1CCC[C@H]1C(=O)N[C@@H](CO)C(=O)N[C@@H](CO)C(=O)NCC(=O)N[C@@H](C)C(=O)N1CCC[C@H]1C(=O)N1CCC[C@H]1C(=O)N1CCC[C@H]1C(=O)N[C@@H](CO)C(N)=O)C(C)C)[C@@H](C)CC` [Example 24], the figures for the Ki in assay [1], in assay [2] and in assay [3] were over 960 nM, 0.254 nM and 729 nM, respectively.
